Among the data in ChEMBL document CHEMBL5303765, “Data for DCP probe BAY-7081” (2023) are delta Tm Staurosporine positive control, ΔTm and inhibition values, retold here.

The target in assay [1] is STE20-like serine/threonine-protein kinase (Homo sapiens) (UniProt Q9H2G2). Description: SLK SGC Tm panel (DSF). Particulars: for ΔTm: Compound concentration 10.0 uM.
Assay [2] deals with Casein kinase II subunit alpha' (Homo sapiens) (UniProt P19784). Description: CSNK2A2 SGC Tm panel (DSF). To be noted: for ΔTm: Compound concentration 10.0 uM.
Assay [3] addresses T1, Serine/threonine-protein kinase 4 (Homo sapiens) (UniProt Q13043).
T1 sequence (whole entry): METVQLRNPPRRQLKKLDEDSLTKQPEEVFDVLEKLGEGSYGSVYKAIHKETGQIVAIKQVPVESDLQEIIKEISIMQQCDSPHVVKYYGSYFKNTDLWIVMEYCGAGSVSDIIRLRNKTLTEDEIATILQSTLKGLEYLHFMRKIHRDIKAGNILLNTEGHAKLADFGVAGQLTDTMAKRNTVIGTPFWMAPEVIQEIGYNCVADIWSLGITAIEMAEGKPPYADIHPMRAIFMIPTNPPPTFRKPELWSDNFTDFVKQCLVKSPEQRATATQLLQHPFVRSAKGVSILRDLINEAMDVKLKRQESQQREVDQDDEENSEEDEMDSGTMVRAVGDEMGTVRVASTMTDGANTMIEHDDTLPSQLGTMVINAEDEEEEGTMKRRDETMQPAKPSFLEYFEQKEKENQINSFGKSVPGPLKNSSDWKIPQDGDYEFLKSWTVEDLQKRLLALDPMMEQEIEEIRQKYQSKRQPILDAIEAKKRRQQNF
The assay is described as follows: STK4 SGC Tm panel (DSF). Particulars: for ΔTm: Compound concentration 10.0 uM.

For assay [4], the target named is Beta-3 adrenergic receptor (Homo sapiens) (UniProt P13945). To be noted: Compound concentration 10.0 uM.
Assay [5] has as its target T2, Aurora kinase A (Homo sapiens) (UniProt O14965).
T2 sequence (whole entry): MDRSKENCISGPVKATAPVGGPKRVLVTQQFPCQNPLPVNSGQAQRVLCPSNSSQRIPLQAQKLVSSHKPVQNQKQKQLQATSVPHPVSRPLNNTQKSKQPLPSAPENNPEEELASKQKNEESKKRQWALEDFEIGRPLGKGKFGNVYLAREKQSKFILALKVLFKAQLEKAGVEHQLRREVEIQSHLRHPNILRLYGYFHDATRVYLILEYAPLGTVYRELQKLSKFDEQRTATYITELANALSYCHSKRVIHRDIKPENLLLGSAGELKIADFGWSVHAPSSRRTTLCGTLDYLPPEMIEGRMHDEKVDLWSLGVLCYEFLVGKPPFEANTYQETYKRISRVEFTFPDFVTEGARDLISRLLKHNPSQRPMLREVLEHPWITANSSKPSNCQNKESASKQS
The assay is described as follows: STK6 SGC Tm panel (DSF). To be noted: for ΔTm: Compound concentration 10.0 uM.

Assay [6] deals with Serine/threonine-protein kinase Chk2 (Homo sapiens) (UniProt O96017). The assay is described as follows: CHEK2 SGC Tm panel (DSF). To be noted: for ΔTm: Compound concentration 10.0 uM.
Assay [7] deals with T3, Alpha-2A adrenergic receptor (Homo sapiens) (UniProt P08913).
T3 sequence (whole entry): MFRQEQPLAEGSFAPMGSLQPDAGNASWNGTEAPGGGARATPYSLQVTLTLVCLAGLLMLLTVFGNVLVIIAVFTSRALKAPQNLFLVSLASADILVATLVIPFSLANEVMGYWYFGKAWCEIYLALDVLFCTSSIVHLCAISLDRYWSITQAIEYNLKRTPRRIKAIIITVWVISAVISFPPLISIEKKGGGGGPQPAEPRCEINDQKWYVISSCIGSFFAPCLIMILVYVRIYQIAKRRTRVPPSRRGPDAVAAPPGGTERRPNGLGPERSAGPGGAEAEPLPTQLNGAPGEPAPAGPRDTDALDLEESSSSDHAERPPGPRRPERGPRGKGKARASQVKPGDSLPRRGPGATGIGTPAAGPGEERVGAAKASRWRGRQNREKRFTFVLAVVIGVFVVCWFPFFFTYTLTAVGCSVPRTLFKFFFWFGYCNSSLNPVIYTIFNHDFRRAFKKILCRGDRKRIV
Particulars: Compound concentration 10.0 uM.

For assay [8], the target named is T4, Serine/threonine-protein kinase ULK1 (Homo sapiens) (UniProt O75385).
T4 sequence (whole entry): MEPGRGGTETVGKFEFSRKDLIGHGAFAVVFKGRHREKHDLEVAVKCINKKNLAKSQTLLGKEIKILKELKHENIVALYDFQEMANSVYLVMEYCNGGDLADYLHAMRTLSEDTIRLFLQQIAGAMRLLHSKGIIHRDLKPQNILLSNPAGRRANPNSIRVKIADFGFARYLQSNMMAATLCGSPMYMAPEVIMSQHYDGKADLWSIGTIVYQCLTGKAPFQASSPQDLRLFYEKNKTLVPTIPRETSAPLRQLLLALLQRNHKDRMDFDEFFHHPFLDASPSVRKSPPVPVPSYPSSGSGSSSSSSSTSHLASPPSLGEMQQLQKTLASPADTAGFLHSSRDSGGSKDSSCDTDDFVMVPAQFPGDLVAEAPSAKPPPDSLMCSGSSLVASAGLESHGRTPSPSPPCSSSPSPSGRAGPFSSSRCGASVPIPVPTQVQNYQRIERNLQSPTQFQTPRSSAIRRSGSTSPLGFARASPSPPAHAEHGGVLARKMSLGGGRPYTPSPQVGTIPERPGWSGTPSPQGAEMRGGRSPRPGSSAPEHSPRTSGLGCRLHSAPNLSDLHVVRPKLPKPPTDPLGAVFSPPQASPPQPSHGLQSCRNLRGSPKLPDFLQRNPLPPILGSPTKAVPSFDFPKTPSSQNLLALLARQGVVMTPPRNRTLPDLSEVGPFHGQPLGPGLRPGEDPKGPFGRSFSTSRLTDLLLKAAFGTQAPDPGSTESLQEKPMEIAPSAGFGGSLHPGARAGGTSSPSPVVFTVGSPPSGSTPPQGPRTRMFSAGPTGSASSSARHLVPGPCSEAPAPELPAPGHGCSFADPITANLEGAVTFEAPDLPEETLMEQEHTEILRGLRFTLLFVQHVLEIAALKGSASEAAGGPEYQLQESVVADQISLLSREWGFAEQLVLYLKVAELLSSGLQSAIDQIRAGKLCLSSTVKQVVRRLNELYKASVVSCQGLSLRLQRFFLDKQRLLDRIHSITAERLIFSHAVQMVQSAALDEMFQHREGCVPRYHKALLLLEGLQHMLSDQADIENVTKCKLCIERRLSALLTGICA
The assay is described as follows: ULK1 SGC Tm panel (DSF). Particulars: for ΔTm: Compound concentration 10.0 uM.

The target of assay [9] is Bromodomain-containing protein 4 (Homo sapiens) (UniProt O60885). Description: BRD4 SGC Tm panel (DSF). To be noted: for ΔTm: Compound concentration 10.0 uM.
Assay [10] concerns the target D(3) dopamine receptor (Homo sapiens) (UniProt P35462). Particulars: Compound concentration 10.0 uM.

Chain of Casein kinase II subunit alpha' (Homo sapiens) (P19784 whole entry, looked up): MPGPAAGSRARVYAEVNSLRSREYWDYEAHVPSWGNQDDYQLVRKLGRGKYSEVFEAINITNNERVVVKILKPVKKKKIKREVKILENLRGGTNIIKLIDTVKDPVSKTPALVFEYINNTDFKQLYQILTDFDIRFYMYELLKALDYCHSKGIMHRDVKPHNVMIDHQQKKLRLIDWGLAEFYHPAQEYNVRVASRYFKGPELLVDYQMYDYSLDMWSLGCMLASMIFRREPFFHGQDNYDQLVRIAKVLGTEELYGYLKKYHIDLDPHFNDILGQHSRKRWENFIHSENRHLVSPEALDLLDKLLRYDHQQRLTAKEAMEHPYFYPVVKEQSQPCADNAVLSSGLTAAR
Chain of D(3) dopamine receptor (Homo sapiens) (P35462 whole entry): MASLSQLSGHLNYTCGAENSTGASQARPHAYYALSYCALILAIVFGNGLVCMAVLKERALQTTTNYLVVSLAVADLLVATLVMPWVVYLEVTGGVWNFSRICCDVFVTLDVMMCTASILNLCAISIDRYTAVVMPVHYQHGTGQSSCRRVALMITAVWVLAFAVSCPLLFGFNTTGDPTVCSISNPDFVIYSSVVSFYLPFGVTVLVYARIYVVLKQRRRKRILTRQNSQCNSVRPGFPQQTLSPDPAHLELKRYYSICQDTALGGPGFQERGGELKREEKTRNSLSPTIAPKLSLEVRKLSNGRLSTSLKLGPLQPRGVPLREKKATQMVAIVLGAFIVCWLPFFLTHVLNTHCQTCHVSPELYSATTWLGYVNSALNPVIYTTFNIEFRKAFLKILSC
Chain of STE20-like serine/threonine-protein kinase (Homo sapiens) (Q9H2G2 whole entry, looked up): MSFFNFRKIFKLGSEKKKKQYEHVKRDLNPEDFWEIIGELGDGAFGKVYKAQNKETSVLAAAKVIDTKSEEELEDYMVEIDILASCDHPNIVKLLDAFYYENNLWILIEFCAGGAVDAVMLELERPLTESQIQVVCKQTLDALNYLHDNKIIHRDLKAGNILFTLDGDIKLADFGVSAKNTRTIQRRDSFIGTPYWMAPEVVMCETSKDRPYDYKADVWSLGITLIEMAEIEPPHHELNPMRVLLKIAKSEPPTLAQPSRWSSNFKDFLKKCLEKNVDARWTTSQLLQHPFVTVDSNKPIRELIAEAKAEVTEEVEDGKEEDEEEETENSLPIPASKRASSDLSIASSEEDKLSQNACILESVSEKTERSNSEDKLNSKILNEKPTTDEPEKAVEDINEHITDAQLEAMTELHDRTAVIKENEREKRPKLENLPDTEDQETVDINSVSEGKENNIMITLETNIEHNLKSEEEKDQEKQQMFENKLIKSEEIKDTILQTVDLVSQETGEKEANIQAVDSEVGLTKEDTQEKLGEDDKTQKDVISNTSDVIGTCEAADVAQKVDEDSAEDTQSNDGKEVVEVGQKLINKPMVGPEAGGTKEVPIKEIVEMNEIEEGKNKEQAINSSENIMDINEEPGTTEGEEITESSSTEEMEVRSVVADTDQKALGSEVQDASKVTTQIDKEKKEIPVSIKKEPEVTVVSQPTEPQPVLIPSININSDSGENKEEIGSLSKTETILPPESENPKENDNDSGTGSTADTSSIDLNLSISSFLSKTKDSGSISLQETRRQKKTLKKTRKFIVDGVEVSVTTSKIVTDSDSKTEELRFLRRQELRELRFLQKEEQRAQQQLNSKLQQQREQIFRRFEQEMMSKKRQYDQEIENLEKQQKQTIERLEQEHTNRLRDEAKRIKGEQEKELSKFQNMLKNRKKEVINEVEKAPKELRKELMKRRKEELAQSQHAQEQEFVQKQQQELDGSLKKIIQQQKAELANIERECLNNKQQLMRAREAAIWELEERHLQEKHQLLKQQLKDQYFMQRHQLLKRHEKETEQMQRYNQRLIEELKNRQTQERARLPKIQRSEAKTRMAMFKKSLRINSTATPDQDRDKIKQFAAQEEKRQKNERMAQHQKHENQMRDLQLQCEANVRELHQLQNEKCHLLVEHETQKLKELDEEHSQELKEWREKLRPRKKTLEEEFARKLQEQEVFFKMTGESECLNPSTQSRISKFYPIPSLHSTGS
Chain of Beta-3 adrenergic receptor (Homo sapiens) (P13945 whole entry, looked up): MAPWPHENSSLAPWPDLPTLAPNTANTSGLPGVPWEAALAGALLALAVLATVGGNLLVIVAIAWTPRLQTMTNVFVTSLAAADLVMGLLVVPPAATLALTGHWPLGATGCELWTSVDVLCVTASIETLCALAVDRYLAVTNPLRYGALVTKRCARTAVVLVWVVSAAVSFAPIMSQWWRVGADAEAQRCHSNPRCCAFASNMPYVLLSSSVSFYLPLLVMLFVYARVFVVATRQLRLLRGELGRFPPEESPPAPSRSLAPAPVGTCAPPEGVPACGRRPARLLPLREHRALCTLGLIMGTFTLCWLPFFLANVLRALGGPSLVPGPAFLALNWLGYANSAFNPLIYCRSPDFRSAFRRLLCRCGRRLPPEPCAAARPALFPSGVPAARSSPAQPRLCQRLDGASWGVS
Chain of Serine/threonine-protein kinase Chk2 (Homo sapiens) (O96017 whole entry): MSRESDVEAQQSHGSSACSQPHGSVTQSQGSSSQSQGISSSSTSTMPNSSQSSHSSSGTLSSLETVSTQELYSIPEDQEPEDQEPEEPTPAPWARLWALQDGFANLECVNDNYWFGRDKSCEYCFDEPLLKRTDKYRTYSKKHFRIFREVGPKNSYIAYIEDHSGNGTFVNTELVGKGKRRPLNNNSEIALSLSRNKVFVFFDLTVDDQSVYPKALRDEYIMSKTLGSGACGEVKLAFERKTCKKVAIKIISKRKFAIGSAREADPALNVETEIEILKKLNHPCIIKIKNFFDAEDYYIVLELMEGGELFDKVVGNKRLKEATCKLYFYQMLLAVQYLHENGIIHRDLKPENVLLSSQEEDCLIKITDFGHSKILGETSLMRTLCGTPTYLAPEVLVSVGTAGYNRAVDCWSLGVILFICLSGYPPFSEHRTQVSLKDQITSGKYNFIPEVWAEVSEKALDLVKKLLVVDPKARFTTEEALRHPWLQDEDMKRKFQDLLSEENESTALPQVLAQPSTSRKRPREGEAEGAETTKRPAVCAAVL

The inhibition is the relative decrease from the control value, in per cent. On to `CCC[C@@H]1CNCc2c1[nH]c(=O)c(C#N)c2N1CCC2(CC1)CC2`, for which the delta Tm Staurosporine positive control in [1] turned out to be 15.4; in assay [2] it was 4.21; in assay [3], 16.2; in assay [5], 20.5; in [6] it was 17.8; in assay [8], 14. In addition, the delta Tm Staurosporine positive control in [9] was determined as 2.04. Further, the ΔTm in assay [1] is -1.06; in assay [2], -0.242; in assay [3], -0.519; in [5], -0.0175; in [6], -0.386; in assay [8] it was 0.234. Also, in assay [9], the ΔTm is 0.857. The inhibition was -3.17% in [4], 9.55% in [7] and -9.68% in assay [10].
For the molecule `CCC[C@H]1CNCc2c1[nH]c(=O)c(C#N)c2N1CCC2(CC1)CC2`, the delta Tm Staurosporine positive control in assay [1] came out at 15.4; in assay [2], 4.21; in [3], 16.2; in assay [5] it was 20.5; in assay [6] it was 17.8; in assay [8] it was 14. In [9], this molecule yielded a delta Tm Staurosporine positive control of 2.04. For the same molecule, the ΔTm in assay [1] is -0.579; in [2], -0.244; in assay [3] it was -0.568; in [5], 0.00646; in [6], 3.11; in [8] it was 0.0473. Moreover, in assay [9], the ΔTm was 0.19. For the same molecule, the inhibition was 3.76% in assay [4], 5.64% in assay [7] and 12.3% in assay [10].
